Laboratory results as given in US20070037253A1, “Methods and compositions for treatment of arthritis and cancer” (priority 2003, published 2007).
Where a SMILES comes first, the peptide text is derived from it.

Experiments:
collagenase I (MMP-1) = experiment: Collagenase activity assay, collagen thin film (collagen type II substrate); assay type: biochemical; settings: collagen thin film method, FIG. 2; read-out: IC50 (mean±SD), collagenase I (MMP-1)
Procedure: Collagenase activity was assayed by collagen thin film method using collagen type II as substrate. IC50 values were graphically determined from the inhibition curves, constructed on the basis of the in vitro results of collagenase assays. Results are the mean±SD of 3 separate experiments done in triplicates. (•), P-NT.II; (□), PIP [59-67] dimer; (Δ), PIP [59-67} monomer; (∇), LY 315920.
Collagenase activity assay: Using collagen thin film as the substrate, a quantitative method was established to measure the enzymatic activity of the MMPs (principally collagenase). Collagen type II (Sigma) solution (4 μL, 3 mg/mL in 0.012 N HCl) was added to each well of 96-well plates and precipitated by slowly increasing the pH with 4 μL of H2O and 8 μL of 0.012 N NaOH. The plate was dried at 23° C. for 24 hr, washed with H2O, and dried again at 23° C., resulting in a thin film containing 12 μg of collagen that was tightly bound to the bottom of the wells. Enzymatic reactions of the collagenase I (with and without peptide inhibitors) against the collagen films were carried out in quadruplicate at 24° C. for 16 h. The digested portion of the film was washed away, while the undigested portion was fixed for 3 h with 0.1% Coomassie brilliant blue R in 10% acetic acid and 45% methanol, and the wells washed and dried.

secreted MMP-2 = target: T1, secreted MMP-2 (Oryctolagus cuniculus, UniProt P50757); experiment: Secreted gelatinase activity of IL-1β-stimulated rabbit synovial fibroblasts treated with peptide (FIG. 4B); assay type: cell-based; settings: cells treated with 1-10 μM peptide, IL-1β stimulation
T1 construct: endogenous in cells; host or cells: HIG-82 rabbit fibroblast-like synoviocytes (ATCC CRL-1832)
T1 sequence (P50757 110-662): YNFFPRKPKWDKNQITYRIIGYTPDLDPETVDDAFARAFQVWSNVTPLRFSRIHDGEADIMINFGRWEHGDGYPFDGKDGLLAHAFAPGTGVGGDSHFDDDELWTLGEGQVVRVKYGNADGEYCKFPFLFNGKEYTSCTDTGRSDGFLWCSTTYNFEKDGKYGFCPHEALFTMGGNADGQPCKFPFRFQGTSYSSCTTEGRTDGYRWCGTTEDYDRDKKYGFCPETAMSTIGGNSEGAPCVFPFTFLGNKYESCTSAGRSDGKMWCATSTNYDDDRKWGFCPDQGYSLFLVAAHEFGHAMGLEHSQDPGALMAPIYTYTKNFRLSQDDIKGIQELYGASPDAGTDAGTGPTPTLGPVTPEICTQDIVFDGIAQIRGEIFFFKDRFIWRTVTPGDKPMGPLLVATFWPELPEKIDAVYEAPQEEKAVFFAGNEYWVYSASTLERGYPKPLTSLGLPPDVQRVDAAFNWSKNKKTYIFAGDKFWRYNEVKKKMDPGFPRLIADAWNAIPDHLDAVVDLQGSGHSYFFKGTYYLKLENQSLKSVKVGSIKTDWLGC
Procedure: (§1) Gelatinase activity in the supernatants from cells induced with IL-1β (5 ng) for 48 h was analyzed by gelatin zymography. (A) Supernatants (activated with final 1 mM APMA at 30° C. for 30 min) were pre-incubated with various inhibitors. (5 μM peptides or 1-2 μM Calbiochem MMP inhibitor II) for 1 h at 25° C. prior to zymographic analyses—Lane 1, without activation (no inhibitor); Lane 2, with activation (no inhibitor); Lanes 3-8, with activation plus inhibitor: 3, P-NT-II; 4, PIP [59-67] monomer; 5, PIP [57-67] dimer; 6, PIP [59-67] dimer; 7 and 8, positive control MMP Inhibitor II (Calbiochem) at 1 and 2 μM concentrations. (B) Rabbit synovial fibroblasts were stimulated by IL-1β in the presence or absence of 1-10 μM of PIP [59-67] dimer for 48 h. Culture supernatants were concentrated by centrifugation (Centricon centrifugal filter devices, M.W. cutoff 30,000) and activated with APMA (1 mM final) before measurement of gelatinase activity by gelatin zymography. Lanes: 1 (−peptide−APMA); 2 (−peptide+APMA); 3 (+1 μM peptide+APMA); 4 (+5 μM peptide+APMA); 5 (+7.5 μM peptide+APMA); 6 (+10 μM peptide+APMA).
(§2) Gelatin zymography: human synovial fluid, purified human recombinant MMP-2 and -9 or APMA-activated concentrated culture supernatant samples (10 μL) was mixed (1:1) with Laemmli sample buffer, loaded on 4% acrylamide stacking gel and electrophoresed (120 V) at 4° C. on a 10% acrylamide-resolving minigel containing 0.1% gelatin. After electrophoresis for 1 h, the gels were soaked in 2.5% Triton X-100 on a shaker for 1 h, changing the solution after 30 min, to eliminate SDS. After overnight incubation in zymogen activation buffer [50 mM Tris-HCl, pH 7.5, containing 10 mM CaCl2 and 5 mM ZnCl2] at 37° C., the gels were rinsed in distilled water, and stained for 3 hr with […], after which clear bands of digested gelatin were clearly visible. The gels were briefly rinsed in distilled water and scanned by the Bio-Rad GS-710 Calibrated Imaging Densitometer.
(§3) FLSC culture and inhibition of extracellular MMP activity: All experiments were performed on HIG-82 rabbit fibroblast-like synoviocytes (FLSCs) obtained from American Type Culture Collection (Manassas, Va.; catalogue No. CRL-1832). FLSCs were grown in Ham's F-12 medium containing 10% fetal bovine serum (FBS) and 1% penicillin/streptomycin, as recommended by the supplier. For experimental purposes, FLSCs were seeded into 12-well plates, grown to near confluence, and then serum starved (Ham's F-12 without FBS or penicillin/streptomycin) for 16 h. […] After activation with APMA (1 mM final concentration), the samples were measured for MMP-1 activity using BIOMOL AK-404 QuantiZyme Assay system, and for MMP-2 and -9 activities by gelatin zymography.

secreted MMP-9 = target: T2, secreted MMP-9 (Oryctolagus cuniculus, UniProt P41246); experiment: as above; assay type: cell-based; settings: cells treated with 1-10 μM peptide, IL-1β stimulation
T2 construct: endogenous in cells; host or cells: HIG-82 rabbit fibroblast-like synoviocytes (ATCC CRL-1832)
T2 sequence (P41246 107-707): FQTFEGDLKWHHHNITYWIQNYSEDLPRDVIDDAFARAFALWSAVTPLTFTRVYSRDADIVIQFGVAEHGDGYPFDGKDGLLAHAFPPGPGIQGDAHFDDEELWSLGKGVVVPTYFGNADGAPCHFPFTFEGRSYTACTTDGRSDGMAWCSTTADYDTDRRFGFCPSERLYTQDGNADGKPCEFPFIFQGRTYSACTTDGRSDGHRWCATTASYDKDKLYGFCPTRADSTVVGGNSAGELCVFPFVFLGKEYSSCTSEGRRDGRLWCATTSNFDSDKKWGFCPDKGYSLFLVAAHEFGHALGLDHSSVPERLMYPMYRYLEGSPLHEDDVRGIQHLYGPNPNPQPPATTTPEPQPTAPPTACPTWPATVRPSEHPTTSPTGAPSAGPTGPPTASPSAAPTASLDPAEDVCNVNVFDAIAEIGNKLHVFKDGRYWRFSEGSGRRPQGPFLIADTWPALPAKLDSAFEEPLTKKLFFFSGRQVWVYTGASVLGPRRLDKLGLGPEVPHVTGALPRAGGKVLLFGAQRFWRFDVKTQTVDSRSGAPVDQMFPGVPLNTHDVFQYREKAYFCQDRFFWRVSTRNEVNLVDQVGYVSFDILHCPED
Procedure: as §1, §2, §3

## CC[C@H](C)[C@H](NC(=O)[C@H](CC(=O)O)NC(=O)[C@@H](N)C(C)C)C(=O)N[C@@H](Cc1c[nH]cn1)C(=O)N[C@H](C(=O)N[C@@H](Cc1c[nH]c2ccccc12)C(=O)N[C@@H](CC(=O)O)C(=O)NCC(=O)N[C@H](C(=O)N[C@H](C(=O)N[C@@H](CC(=O)O)C(=O)N[C@H](C(=O)N[C@@H](Cc1c[nH]cn1)C(=O)N[C@H](C(=O)N[C@@H](Cc1c[nH]c2ccccc12)C(=O)N[C@@H](CC(=O)O)C(=O)NCC(=O)N[C@H](C(=O)O)C(C)C)C(C)C)[C@@H](C)CC)C(C)C)C(C)C)C(C)C [PIP [59-67] dimer] (H-VDIHVWDGVVDIHVWDGV-OH; N-terminus and C-terminus assumed)
Collagenase I (MMP-1)
  IC50: 7.75 ± 1.11 µM
Secreted MMP-2
  activity of secreted MMP-2: failed to inhibit
Secreted MMP-2; listed as dimerized peptide
  activity of secreted MMP-2: less marked
Secreted MMP-9
  activity of secreted MMP-9: failed to inhibit
Secreted MMP-9; listed as dimerized peptide
  activity of secreted MMP-9: less marked
